Data: patent US20160022675A1, “PROCESSES FOR PREPARING TETRAHYDROISOQUINOLINES” (BRISTOL-MYERS SQUIBB COMPANY, priority 2013, published 2016)

Tests used:
[1] = Solubility profile (USP definition) in solvents; format: physicochemical
Stability = format: physicochemical; conditions: with protection from light
NET [2] = target: NET (Homo sapiens, UniProt P23975); assay: Competition binding, membranes from HEK cells overexpressing NET; design: expressed in transfected cells; host or cells: HEK cells (membranes); conditions: radioligand at Kd concentration; HEK cell membranes
Sequence of NET (Homo sapiens, UniProt P23975) (P23975 whole entry): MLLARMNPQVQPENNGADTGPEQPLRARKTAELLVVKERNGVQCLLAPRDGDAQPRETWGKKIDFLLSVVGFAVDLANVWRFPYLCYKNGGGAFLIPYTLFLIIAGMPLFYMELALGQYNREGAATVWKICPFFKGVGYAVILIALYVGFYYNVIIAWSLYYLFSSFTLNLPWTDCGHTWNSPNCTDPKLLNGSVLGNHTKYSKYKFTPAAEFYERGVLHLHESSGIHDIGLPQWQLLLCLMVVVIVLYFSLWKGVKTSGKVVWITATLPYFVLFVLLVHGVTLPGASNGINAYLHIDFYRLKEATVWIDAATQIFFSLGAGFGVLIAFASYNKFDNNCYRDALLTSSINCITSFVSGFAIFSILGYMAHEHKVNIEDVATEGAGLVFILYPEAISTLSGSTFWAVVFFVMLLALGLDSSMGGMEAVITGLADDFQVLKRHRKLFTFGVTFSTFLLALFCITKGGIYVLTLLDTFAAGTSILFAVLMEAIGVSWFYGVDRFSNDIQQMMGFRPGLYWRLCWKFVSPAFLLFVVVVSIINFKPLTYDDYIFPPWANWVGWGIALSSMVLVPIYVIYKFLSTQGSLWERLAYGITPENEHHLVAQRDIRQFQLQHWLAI
Experimental: Competition binding experiments were performed to determine the in vitro binding potencies (IC50 values) of Compound 1-(4S) for SERT, DAT, and NET. Membranes prepared from human embryonic kidney (HEK) cells overexpressing each transporter were employed. Radioligands were used at their respective affinity constant (Kd) concentrations for each transporter to enable direct comparisons of the IC50 values between assays.

Distribution coefficient = format: physicochemical
SERT [3] = target: T1, SERT (Mus musculus, UniProt Q60857); assay: SERT occupancy in the brain, mouse; format: in vivo
T1 construct: from tissue; host or cells: mouse brain
T1 sequence (Q60857 whole entry): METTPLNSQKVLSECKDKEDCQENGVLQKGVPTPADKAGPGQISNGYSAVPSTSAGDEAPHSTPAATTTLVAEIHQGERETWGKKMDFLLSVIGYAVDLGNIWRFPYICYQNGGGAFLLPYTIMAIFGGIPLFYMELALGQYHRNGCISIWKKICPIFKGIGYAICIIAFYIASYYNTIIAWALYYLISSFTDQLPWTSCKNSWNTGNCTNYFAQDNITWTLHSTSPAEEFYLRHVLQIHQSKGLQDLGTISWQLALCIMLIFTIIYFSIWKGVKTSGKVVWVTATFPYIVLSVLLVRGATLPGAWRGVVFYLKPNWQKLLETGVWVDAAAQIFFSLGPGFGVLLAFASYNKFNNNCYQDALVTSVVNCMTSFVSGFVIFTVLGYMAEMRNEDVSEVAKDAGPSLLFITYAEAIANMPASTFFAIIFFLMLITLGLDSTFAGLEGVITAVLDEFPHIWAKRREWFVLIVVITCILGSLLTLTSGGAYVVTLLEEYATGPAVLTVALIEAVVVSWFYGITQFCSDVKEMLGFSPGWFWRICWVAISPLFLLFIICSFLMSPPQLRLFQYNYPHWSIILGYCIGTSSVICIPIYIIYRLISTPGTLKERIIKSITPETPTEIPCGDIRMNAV
Experimental: (§1) The effects of Compound 1-(4S) in the mouse tail suspension model of depression and target site occupancy were assessed to compare occupancies associated with the behavioral response. The mouse tail suspension model is known the art. […] The lowest effective dose of Compound 1-(4S), 0.3 mg/kg, PO, decreased immobility by 77% relative to vehicle-treated controls. […] Administration of Compound 1-(4S) led to dose-dependent occupancy of SERT, NET, and DAT binding sites in the brain. At the lowest behaviorally-effective dose (0.3 mg/kg), occupancies were 86±1% of SERT, 76±3% of NET, and 28±3% of DAT. At 1 mg/kg, occupancies were 89±1%, 82±1% and 54±3% at SERT, NET, and DAT, respectively. Pharmacokinetics and pharmacodynamics (PD) in mouse, rat, and dog focused primarily on DAT occupancy since SERT and NET occupancies were saturated by drug for most, if not all, of the times studied. DAT occupancy increased as a function of increasing plasma exposure. The DAT occupancy to total plasma level could be fitted using a single binding site model and plasma level ED50 (the dose producing 50% effect) values could be calculated.
(§2) To better understand the margin between doses of Compound 1-(4S) that are effective in the mouse tail suspension models and those that lead to monoamine-related side effects, locomotor activity was examined to assess psychostimulant properties and stereotypy was examined to assess more severe DA-related side effects. Increased body temperature, another effect that has been attributed to DA pharmacology, was also studied. In the mouse, Compound 1-(4S) increased locomotor activity and stereotypy scores at doses of 3.0 mg/kg and 10 mg/kg, respectively. Thus, the margin between the Compound 1-(4S) effective dose in the mouse tail suspension and increased locomotor activity was 10-fold and the margin versus activity in stereotypy was 30-fold. The thermogenic effect of Compound 1-(4S) was studied in mice and rats by measuring changes in rectal temperature following administration of the compound. […] The onset of the thermogenesis was earlier as the dose was increased. […]

SERT [4] = target: SERT (Homo sapiens, UniProt P31645); assay: [3H]5-HT uptake into HEK293/hSERT cells; format: cell-based; design: expressed in transfected cells; host or cells: HEK293; conditions: read-out: Serotonin reuptake IC50 ([3H]5-HT uptake)
Sequence of SERT (Homo sapiens, UniProt P31645) (P31645 whole entry): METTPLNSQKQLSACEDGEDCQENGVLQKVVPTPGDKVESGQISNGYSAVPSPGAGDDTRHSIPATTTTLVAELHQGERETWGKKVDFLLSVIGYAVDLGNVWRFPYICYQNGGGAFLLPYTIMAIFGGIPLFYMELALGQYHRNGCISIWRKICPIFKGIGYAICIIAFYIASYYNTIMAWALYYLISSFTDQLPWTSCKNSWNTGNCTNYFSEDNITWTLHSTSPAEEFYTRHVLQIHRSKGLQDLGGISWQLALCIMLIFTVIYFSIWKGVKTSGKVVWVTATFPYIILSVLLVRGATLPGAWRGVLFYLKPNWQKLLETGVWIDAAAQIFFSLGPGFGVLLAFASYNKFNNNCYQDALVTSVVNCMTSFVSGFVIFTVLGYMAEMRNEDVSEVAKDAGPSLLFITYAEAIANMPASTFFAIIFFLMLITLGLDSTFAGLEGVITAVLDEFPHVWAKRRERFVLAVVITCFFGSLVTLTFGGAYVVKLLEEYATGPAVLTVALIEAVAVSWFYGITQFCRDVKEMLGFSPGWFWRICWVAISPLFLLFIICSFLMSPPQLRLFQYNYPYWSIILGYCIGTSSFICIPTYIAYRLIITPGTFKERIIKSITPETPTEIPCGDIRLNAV
Text: Cell-based assays were used to determine the ability of Compound 1-(4S) to inhibit reuptake of 3H-labeled DA ([3H]DA), NE ([3H]NE), and 5-HT ([3H]5-HT).

rectal temperature = assay: Thermogenic effect (rectal temperature), rat; format: in vivo
Text: (§3) To better understand the margin between doses of Compound 1-(4S) that are effective in the mouse tail suspension models and those that lead to monoamine-related side effects, locomotor activity was examined to assess psychostimulant properties and stereotypy was examined to assess more severe DA-related side effects. Increased body temperature, another effect that has been attributed to DA pharmacology, was also studied. In the mouse, Compound 1-(4S) increased locomotor activity and stereotypy scores at doses of 3.0 mg/kg and 10 mg/kg, respectively. Thus, the margin between the Compound 1-(4S) effective dose in the mouse tail suspension and increased locomotor activity was 10-fold and the margin versus activity in stereotypy was 30-fold. The thermogenic effect of Compound 1-(4S) was studied in mice and rats by measuring changes in rectal temperature following administration of the compound. […] The onset of the thermogenesis was earlier as the dose was increased. The levels of SERT and NET occupancy were over 80% and appeared saturated across the doses tested. The DAT occupancy was dose-dependent, with 55±5.7% at 1.0 mg/kg, 74±6% at 3.0 mg/kg, and 83±0.8% at 10 mg/kg. […] The onset of the temperature increase was earlier at the highest dose of 10 mg/kg. […] The DAT occupancy was 37±8.3%, 55±5.2%, and 71±1.7% at 1.0, 3.0, and 10 mg/kg, respectively. Consistent with data obtained with mice, the thermogenic effect of Compound 1-(4S) is dose dependently related to DAT occupancy and at least 50% DAT occupancy is needed for this effect.

locomotor activity = assay: Locomotor activity, mouse; format: in vivo
Text: as §3, with “Consistent with data obtained with mice, the thermogenic effect of Compound 1-(4S) is dose dependently related to DAT occupancy and at least 50% DAT occupancy is needed for this effect.” left out

DAT = target: T2, DAT (Mus musculus, UniProt Q61327); assay: DAT occupancy in the brain, mouse; format: in vivo
T2 construct: from tissue; host or cells: mouse brain
T2 sequence (Q61327 whole entry): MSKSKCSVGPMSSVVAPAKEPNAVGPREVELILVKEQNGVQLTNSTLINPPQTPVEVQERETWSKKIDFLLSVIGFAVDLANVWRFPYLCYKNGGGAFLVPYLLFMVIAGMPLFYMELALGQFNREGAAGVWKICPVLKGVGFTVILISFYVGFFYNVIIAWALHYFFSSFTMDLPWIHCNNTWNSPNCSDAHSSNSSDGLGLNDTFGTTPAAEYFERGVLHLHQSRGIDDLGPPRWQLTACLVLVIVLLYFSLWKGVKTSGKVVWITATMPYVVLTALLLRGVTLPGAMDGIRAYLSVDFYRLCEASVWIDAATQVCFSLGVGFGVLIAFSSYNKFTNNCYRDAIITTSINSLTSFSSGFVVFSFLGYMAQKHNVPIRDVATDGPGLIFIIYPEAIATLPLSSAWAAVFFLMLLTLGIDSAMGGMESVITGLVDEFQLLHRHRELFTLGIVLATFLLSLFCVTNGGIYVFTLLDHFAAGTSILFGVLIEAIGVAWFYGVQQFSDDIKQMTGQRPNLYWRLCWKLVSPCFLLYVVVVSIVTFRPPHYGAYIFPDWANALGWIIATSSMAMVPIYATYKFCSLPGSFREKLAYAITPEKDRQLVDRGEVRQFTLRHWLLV
Experimental: as §1, §3

NET [5] = target: T3, NET (Mus musculus, UniProt O55192); assay: NET occupancy in the brain, mouse; format: in vivo
T3 construct: from tissue; host or cells: mouse brain
T3 sequence (O55192 whole entry): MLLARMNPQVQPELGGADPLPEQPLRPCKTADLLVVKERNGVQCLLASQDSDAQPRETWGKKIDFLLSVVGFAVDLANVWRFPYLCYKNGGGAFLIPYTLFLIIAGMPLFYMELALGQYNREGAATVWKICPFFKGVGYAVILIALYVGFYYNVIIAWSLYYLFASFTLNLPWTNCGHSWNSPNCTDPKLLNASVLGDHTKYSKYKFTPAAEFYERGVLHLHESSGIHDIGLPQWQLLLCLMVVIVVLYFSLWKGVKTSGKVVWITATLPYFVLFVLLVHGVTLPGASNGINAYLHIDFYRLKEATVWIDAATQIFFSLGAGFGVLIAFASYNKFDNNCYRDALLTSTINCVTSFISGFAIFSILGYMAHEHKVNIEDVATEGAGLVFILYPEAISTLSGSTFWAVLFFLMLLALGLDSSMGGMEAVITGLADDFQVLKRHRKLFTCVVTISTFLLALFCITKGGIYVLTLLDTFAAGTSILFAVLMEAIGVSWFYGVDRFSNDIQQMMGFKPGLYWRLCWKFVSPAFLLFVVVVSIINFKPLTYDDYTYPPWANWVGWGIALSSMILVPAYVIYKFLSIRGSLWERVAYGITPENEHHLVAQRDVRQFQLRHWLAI
Experimental: as §1, §2

[6] = mouse brain, 0.3 mg/kg, tail suspension study
[7] = mouse brain, 1 mg/kg, tail suspension study
[8] = mouse, thermogenesis study, across doses 1, 3, 10 mg/kg

CN1Cc2cc(-c3ccc(N)nn3)ccc2[C@H](c2ccc3ccccc3c2)C1 [Compound 1-(4S), 6-[(4S)-1,2,3,4-tetrahydro-2-methyl-4-(2-naphthalenyl)-7-isoquinolinyl]-3-pyridazinamine]
Solubility profile (USP definition) ([1]; N,N-dimethylacetamide, dimethylsulfoxide): soluble: N,N-dimethylacetamide, dimethylsulfoxide
Solubility profile (USP definition) ([1]; PEG 400): sparingly soluble: PEG 400
Solubility profile (USP definition) ([1]; acetonitrile, ethyl acetate, n-butanol): very slightly soluble: acetonitrile, ethyl acetate,
Solubility profile (USP definition) ([1]; isopropanol, acetone, ethanol, methanol, propylene glycol, dichloromethane): slightly soluble: isopropanol, acetone, ethanol,
Solubility profile (USP definition) ([1]; n-heptane): practically insoluble: n-heptane
Solubility profile (USP definition) ([1]; tetrahydrofuran): freely soluble: tetrahydrofuran
Stability (Stability): Compound 1-(4S) is stable up to 25 °C with protection
IC50 (NET [2]): 7.99 ± 0.43 nM
Distribution coefficient Log Do/b (Distribution coefficient; pH 6.5): 3.10
Distribution coefficient Log Do/b (Distribution coefficient; pH 7.4): 3.82
receptor occupancy at 0.3 mg/kg (SERT [3]; [6]): 86 ± 1%
receptor occupancy at 1 mg/kg (SERT [3]; [7]): 89 ± 1%
SERT occupancy (SERT [3]; [8]): over 80%
IC50 (SERT [4]): 18.5 ± 5.5 nM
significant increase in rectal temperature (rectal temperature; rat, 1.0 mg/kg): not
change in rectal temperature (rectal temperature; rat, doses of 3.0 and 10 mg/kg): Significant increases
DAT occupancy needed for the thermogenic effect (rectal temperature; rats, consistent with mice): at least 50%
dose that increased locomotor activity (locomotor activity): 3.0 mg/kg
margin between effective dose in mouse tail suspension and increased locomotor activity (locomotor activity): 10 fold
receptor occupancy at 0.3 mg/kg (DAT; [6]): 28 ± 3%
receptor occupancy at 1 mg/kg (DAT; [7]): 54 ± 3%
EC50 (DAT; single binding site model, read-out: total plasma concentration producing 50% effect (EC50), DAT occupancy): 1190 nM
receptor occupancy at 1 mg/kg (DAT; thermogenesis study, 1.0 mg/kg): 55 ± 5.7%
receptor occupancy at 3 mg/kg (DAT; thermogenesis study, 3.0 mg/kg): 74 ± 6%
receptor occupancy at 10 mg/kg (DAT; thermogenesis study, 10 mg/kg): 83 ± 0.8%
receptor occupancy at 0.3 mg/kg (NET [5]; [6]): 76 ± 3%
receptor occupancy at 1 mg/kg (NET [5]; [7]): 82 ± 1%
NET occupancy (NET [5]; [8]): over 80%
